From patent publication US20080242724A1, “Ibopamine Maleate, Method for Preparing it and Pharmaceutical Compositions Containing It” (AZIENDE CHIM. RIUN. ANG. FRANC. A.C.R.A.F. S.P.A., priority 2004, published 2008)
Structures can show the parent of a compound that is named as a salt.

System: male rabbits (New Zealand White)
Assay: Ocular tolerability (Draize) after repeated instillation
Type: in vivo, rabbit
Conditions: for Conjunctiva Lachrymation / Conjunctiva Reddening / Conjunctiva Swelling / Cornea Area of the cornea affected by opacity / Cornea Opacity / Iris: Draize score; for Conjunctiva Lachrymation / Conjunctiva Reddening / Conjunctiva Swelling / Cornea Area of the cornea affected by opacity / Cornea Opacity / Iris / Total Score: rabbit eye, 0.1 ml aqueous solution (corresponding to 1.79% by weight of ibopamine, pH 7.0) three times a day for fifteen days; for local tolerability: compared with the hydrochloride, statement in words; for Total Score: sum of Draize scores
Protocol: Two aqueous solutions were used.
The first contained 2% by weight of ibopamine hydrochloride (corresponding to 1.79% by weight of ibopamine) buffered to pH 7.0.
The second contained 2.46% by weight of ibopamine maleate (corresponding to 1.79% by weight of ibopamine) buffered to pH 7.0.
12 male rabbits (New Zealand White) with an average weight of 2 kg and an average age of ten months were used, divided into two groups of six rabbits each. The first group was treated with 0.1 ml of the first test solution three times a day for fifteen days. The second group was treated with 0.1 ml of the second test solution three times a day for fifteen days.
The tolerability was evaluated according to J. Draize et al., Pharmacol. Exp. Ther., 83, 377-390 (1944).

Compound | Conjunctiva Lachrymation | Conjunctiva Reddening | Conjunctiva Swelling | Cornea Area of the cornea affected by opacity | Cornea Opacity | Iris | local tolerability (listed as ibopamine maleate) | local tolerability (listed as maleate) | Total Score
ibopamine maleate (1:1) | 1 | 1 | 0 | 1 | 0 | 0 | better local tolerability | better local tolerability than the hydrochloride | 3
CNCCc1ccc(OC(=O)C(C)C)c(OC(=O)C(C)C)c1 [Ibopamine hydrochloride, ibopamine hydrochloride, reference compound] | 2 | 1 | 1 | 2 | 1 | 1 | – | – | 8
